Patent publication US11746098B2, “Proteasome activity enhancing compounds” (Proteostasis Therapeutics, Inc., priority 2018, dated 2023)

The compounds below were run against USP14 (Homo sapiens, UniProt P54578) (assay: USP14 Inhibition Assay). Conditions: average value from a minimum of two experimental determinations, read-out: IC50 Category.
Type: biochemical
Text: The activity of the compound described herein to inhibit USP14 can be measured using previously described methodology [B. H. Lee et al. Nature 2010, 467 (9), 179, the contents of which are expressly incorporated by reference herein].
Example 6: USP14 Inhibition Assay

| IC50 [nM] | SMILES |
| --- | --- |
| > 5000 | Cc1cc(C(=O)CN2CCCCC2)c(C)n1[C@H]1CC[C@@H](C(=O)O)CC1 [Compound 46, cis-4-(2,5-Dimethyl-3-(2-(piperidin-1-yl)acetyl)-1H-pyrrol-1-yl)cyclohexanecarboxylic acid] |
| 500 to 5000 | Cc1cc(C(=O)CNC2CC2)c(C)n1-c1ccc(Cl)cc1 [Compound 48, 1-(1-(4-Chlorophenyl)-2,5-dimethyl-1H-pyrrol-3-yl)-2-(cyclopropylamino)ethanone] |
| 500 to 5000 | Cc1cc(C(=O)CN2CCC(OCc3ccccc3)C2)c(C)n1-c1ccc(Cl)cc1 (stereo not shown) [Compound 49, 2-(3-(Benzyloxy)pyrrolidin-1-yl)-1-(1-(4-chlorophenyl)-2,5-dimethyl-1H-pyrrol-3-yl)ethanone] |
| 500 to 5000 | Cc1cc(C(=O)CN2CCCC2CCO)c(C)n1-c1ccc(Cl)cc1 (stereo not shown) [Compound 50, 1-(1-(4-Chlorophenyl)-2,5-dimethyl-1H-pyrrol-3-yl)-2-(2-(2-hydroxyethyl)pyrrolidin-1-yl)ethanone] |
| 500 to 5000 | Cc1cc(C(=O)CN2CCC(S(C)(=O)=O)C2)c(C)n1-c1ccc(Cl)cc1 (stereo not shown) [Compound 51, 1-(1-(4-Chlorophenyl)-2,5-dimethyl-1H-pyrrol-3-yl)-2-(3-(methylsulfonyl)pyrrolidin-1-yl)ethanone] |
| 500 to 5000 | Cc1cc(C(=O)CN2CC[C@H](O)C2)c(C)n1-c1ccc(Cl)cc1 [Compound 52, (S)-1-(1-(4-Chlorophenyl)-2,5-dimethyl-1H-pyrrol-3-yl)-2-(3-hydroxypyrrolidin-1-yl)ethanone] |
| 500 to 5000 | Cc1cc(C(=O)CN2CCC(C(F)(F)F)CC2)c(C)n1-c1ccc(Cl)cc1 [Compound 53, 1-(1-(4-Chlorophenyl)-2,5-dimethyl-1H-pyrrol-3-yl)-2-(4-(trifluoromethyl)piperidin-1-yl)ethanone] |
| 500 to 5000 | CCCNC(=O)OC1CCCN(CC(=O)c2cc(C)n(-c3ccc(Cl)cc3)c2C)C1 (stereo not shown) [Compound 54, 1-(2-(1-(4-Chlorophenyl)-2,5-dimethyl-1H-pyrrol-3-yl)-2-oxoethyl)piperidin-3-yl propylcarbamate] |
| 500 to 5000 | Cc1cc(C(=O)CN2CCC(N(C)C)C2)c(C)n1-c1ccc(Cl)cc1 (stereo not shown) [Compound 55, 1-(1-(4-Chlorophenyl)-2,5-dimethyl-1H-pyrrol-3-yl)-2-(3-(dimethylamino)pyrrolidin-1-yl)ethanone] |
| 500 to 5000 | Cc1cc(C(=O)CN2CCCC2)c(C)n1-c1ccc(Br)c(Cl)c1 [Compound 56, 1-(1-(4-Bromo-3-chlorophenyl)-2,5-dimethyl-1H-pyrrol-3-yl)-2-(pyrrolidin-1-yl)ethanone] |
| 500 to 5000 | Cc1cc(C(=O)CN2CCCCC2)c(C)n1-c1ccc(Br)c(Cl)c1 [Compound 57, 1-(1-(4-Bromo-3-chloropheny1)-2,5-dimethyl-1H-pyrrol-3-yl)-2-(piperidin-1-yl)ethanone] |
| 500 to 5000 | Cc1cc(C(=O)CN2CCCCC2)c(C)n1-c1ccc(OC(F)(F)F)cc1 [Compound 58, 1-(2,5-Dimethyl-1-(4-(trifluoromethoxy)phenyl)-1H-pyrrol-3-yl)-2-(piperidin-1-yl)ethanone] |
| 500 to 5000 | Cc1cc(C(=O)CN2CCC(O)CC2)c(C)n1-c1ccc(Br)c(Cl)c1 [Compound 59, 1-(1-(4-Bromo-3-chlorophenyl)-2,5-dimethyl-1H-pyrrol-3-yl)-2-(4-hydroxypiperidin-1-yl)ethanone] |
| 500 to 5000 | Cc1cc(C(=O)CN2CCC(O)(CN(C)C)C2)c(C)n1-c1ccc(Cl)cc1 (stereo not shown) [Compound 60, 1-(1-(4-Chlorophenyl)-2,5-dimethyl-1H-pyrrol-3-yl)-2-(3-((dimethylamino)methyl)-3-hydroxypyrrolidin-1-yl)ethanone] |
| 500 to 5000 | Cc1cc(C(=O)CN2CCCC2)c(C)n1-c1ccc(OC(F)(F)F)cc1 [Compound 61, 1-(2,5-Dimethyl-1-(4-(trifluoromethoxy)phenyl)-1H-pyrrol-3-yl)-2-(pyrrolidin-1-yl)ethanone] |
| 500 to 5000 | Cc1cc(C(=O)CN2CCC(O)CC2)c(C)n1-c1ccc(OC(F)(F)F)cc1 [Compound 62, 1-(2,5-dimethyl-1-(4-(trifluoromethoxy)phenyl)-1H-pyrrol-3-yl)-2-(4-hydroxypiperidin-1-yl)ethanone] |
| 500 to 5000 | COc1ccc(-n2c(C)cc(C(=O)CN3CCCCC3)c2C)cc1F [Compound 63, 1-(1-(3-Fluoro-4-methoxyphenyl)-2,5-dimethyl-1H-pyrrol-3-yl)-2-(piperidin-1-yl)ethanone] |
| 500 to 5000 | COc1ccc(-n2c(C)cc(C(=O)CN3CCC(O)CC3)c2C)cc1F [Compound 64, 1-(1-(3-Fluoro-4-methoxyphenyl)-2,5-dimethyl-1H-pyrrol-3-yl)-2-(4-hydroxypiperidin-1-yl)ethanone] |
| 500 to 5000 | Cc1cc(C(=O)CN2CCCCC2)c(C)n1C1CCCCC1 [Compound 65, 1-(1-Cyclohexyl-2,5-dimethyl-1H-pyrrol-3-yl)-2-(piperidin-1-yl)ethanone] |
| 500 to 5000 | Cc1cc(C(=O)CNC2CCC(C)CC2)c(C)n1-c1ccc(Cl)cc1 (stereo not shown) [Compound 66, 1-(1-(4-Chlorophenyl)-2,5-dimethyl-1H-pyrrol-3-yl)-2-((4-methylcyclohexyl)amino)ethanone] |

| IC50 [nM] | SMILES |
| --- | --- |
| 500 to 5000 | Cc1cc(C(=O)CNC2CCCCCC2)c(C)n1-c1ccc(Cl)cc1 [Compound 67, 1-(1-(4-Chlorophenyl)-2,5-dimethyl-1H-pyrrol-3-yl)-2-(cycloheptylamino)ethanone] |
| 500 to 5000 | Cc1cc(C(=O)CN2CCCCC2)c(C)n1-c1ccc(C(F)(F)F)cc1 [Compound 68, 1-(2,5-Dimethyl-1-(4-(trifluoromethyl)phenyl)-1H-pyrrol-3-yl)-2-(piperidin-1-yl)ethanone] |
| 500 to 5000 | Cc1cc(C(=O)CN2CCCCC2)c(C)n1-c1ccc(F)c(F)c1 [Compound 69, 1-(1-(3,4-Difluorophenyl)-2,5-dimethyl-1H-pyrrol-3-yl)-2-(piperidin-1-yl)ethanone] |
| 500 to 5000 | Cc1cc(C(=O)CN2CCC(O)CC2)c(C)n1-c1ccc(F)c(F)c1 [Compound 70, 1-(1-(3,4-Difluorophenyl)-2,5-dimethyl-1H-pyrrol-3-yl)-2-(4-hydroxypiperidin-1-yl)ethanone] |
| 500 to 5000 | Cc1cc(C(=O)CC2CCCCN2)c(C)n1-c1ccc(Cl)cc1 (stereo not shown) [Compound 71, 1-(1-(4-Chlorophenyl)-2,5-dimethyl-1H-pyrrol-3-yl)-2-(piperidin-2-yl)ethanone] |
| 500 to 5000 | Cc1cc(C(=O)CC2CCCCN2C)c(C)n1-c1ccc(Cl)cc1 (stereo not shown) [Compound 72, 1-(1-(4-Chlorophenyl)-2,5-dimethyl-1H-pyrrol-3-yl)-2-(1-methylpiperidin-2-yl)ethanone] |
| 500 to 5000 | Cc1cc(C(=O)CN2CCC(O)CC2)c(C)n1-c1ccc(F)cc1 [Compound 73, 1-(1-(4-Fluorophenyl)-2,5-dimethyl-1H-pyrrol-3-yl)-2-(4-hydroxypiperidin-1-yl)ethanone] |
| 500 to 5000 | Cc1cc(C(=O)CN2CCC(F)CC2)c(C)n1-c1ccc(F)cc1 [Compound 74, 1-(1-(4-Fluorophenyl)-2,5-dimethyl-1H-pyrrol-3-yl)-2-(4-fluoropiperidin-1-yl)ethanone] |
| 500 to 5000 | Cc1cc(C(=O)CN2CCC(OCC(=O)NC3CC3)CC2)c(C)n1-c1ccc(F)cc1 [Compound 75, N-Cyclopropyl-2-((1-(2-(1-(4-fluorophenyl)-2,5-dimethyl-1H-pyrrol-3-yl)-2-oxoethyl)piperidin-4-yl)oxy)acetamide] |
| 500 to 5000 | Cc1cc(C(=O)CN2CCCCC2)c(C)n1C1CCC(F)(F)CC1 [Compound 76, 1-(1-(4,4-Difluorocyclohexyl)-2,5-dimethyl-1H-pyrrol-3-yl)-2-(piperidin-1-yl)ethanone] |
| 500 to 5000 | Cc1cc(C(=O)CNCCO)c(C)n1-c1ccc(C#N)cc1 [Compound 77, 4-(3-(2-((2-Hydroxyethyl)amino)acetyl)-2,5-dimethyl-1H-pyrrol-1-yl)benzonitrile] |
| < 500 | CCNC(=O)COC1CCN(CC(=O)c2cc(C)n(-c3ccc(Cl)cc3)c2C)CC1 [Compound 79, 2-((1-(2-(1-(4-Chlorophenyl)-2,5-dimethyl-1H-pyrrol-3-yl)-2-oxoethyl)piperidin-4-yl)oxy)-N-ethylacetamide] |
| < 500 | Cc1cc(C(=O)CN2CCC(OCC(=O)N3CCCCC3)CC2)c(C)n1-c1ccc(Cl)cc1 [Compound 80, 1-(1-(4-Chlorophenyl)-2,5-dimethyl-1H-pyrrol-3-yl)-2-(4-(2-oxo-2-(piperidin-1-yl)ethoxy)piperidin-1-yl)ethanone] |
| < 500 | Cc1cc(C(=O)CN2CCCCC2)c(C)n1-c1ccc(C#N)cc1 [Compound 81, 4-(2,5-Dimethyl-3-(2-(piperidin-1-yl)acetyl)-1H-pyrrol-1-yl)benzonitrile] |
| < 500 | CCCNC(=O)COC1CCN(CC(=O)c2cc(C)n(-c3ccc(Cl)cc3)c2C)CC1 [Compound 83, 2-((1-(2-(1-(4-Chlorophenyl)-2,5-dimethyl-1H-pyrrol-3-yl)-2-oxoethyl)piperidin-4-yl)oxy)-N-propylacetamide] |
| < 500 | Cc1cc(C(=O)CN2CCC(OCC(=O)NC(C)(C)C)CC2)c(C)n1-c1ccc(Cl)cc1 [Compound 84, N-(tert-Butyl)-2-((1-(2-(1-(4-chlorophenyl)-2,5-dimethyl-1H-pyrrol-3-yl)-2-oxoethyl)piperidin-4-yl)oxy)acetamide] |
| < 500 | Cc1cc(C(=O)CN2CCCC2)c(C)n1-c1ccc(C#N)cc1 [Compound 85, 4-(2,5-Dimethyl-3-(2-(pyrrolidin-1-yl)acetyl)-1H-pyrrol-1-yl)benzonitrile] |
| < 500 | Cc1c(C(=O)CN2CCCCC2)cc(C2CC2)n1-c1ccc(Cl)cc1 [Compound 90, 1-(1-(4-Chloropheny1)-5-cyclopropyl-2-methyl-1H-pyrrol-3-yl)-2-(piperidin-1-yl)ethanone] |
| < 500 | Cc1c(C(=O)CN2CCCCC2)ccn1-c1ccc(Cl)cc1 [Compound 91, 1-(1-(4-Chlorophenyl)-2-methyl-1H-pyrrol-3-yl)-2-(piperidin-1-yl)ethanone] |
| < 500 | Cc1cc(C(=O)CN2CCCC2)n(C)c1-c1ccc(Cl)cc1 [Compound 92, 1-(5-(4-Chlorophenyl)-1,4-dimethyl-1H-pyrrol-2-yl)-2-(pyrrolidin-1-yl)ethanone] |
